Experimental data published in ChEMBL document CHEMBL1201862, “PubChem BioAssay data set” (2004).
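Tested at 5 concentrations; 48 h exposure; 96-well plates; endpoints linearly interpolated, else capped at highest concentration. GI50 = concentration required for 50% inhibition of growth.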 The source made the active and inactive calls. No stated cut-off is given here; in the data, active = GI50 up to about 1.1 µM and inactive = higher.

Columns and labels:
Experiment in all cases: NCI-60 cell line screen, 48 h
[1] = system: SK-MEL-2
[2] = system: 786-0
[3] = system: MDA-MB-435
[4] = system: Hs-578T
[5] = system: SF-295
[6] = system: T47D
[7] = system: NCI-H460
[8] = system: A498
[9] = system: UO-31
[10] = system: NCI/ADR-RES
[11] = system: NCI-H23
[12] = system: UACC-257
[13] = system: A549
[14] = system: SF-539
[15] = system: RPMI-8226
[16] = system: PC-3
[17] = system: SK-MEL-5
[18] = system: EKVX
[19] = system: K562
[20] = system: OVCAR-8
[21] = system: BT-549
[22] = system: SN12C
[23] = system: SF-268
[24] = system: HL-60
[25] = system: LOX IMVI
[26] = system: CAKI-1
[27] = system: RXF 393
[28] = system: OVCAR-3
[29] = system: SNB-19
[30] = system: MDA-MB-231
[31] = system: ACHN
[32] = system: NCI-H522
[33] = system: MDA-N
[34] = system: SW-620
[35] = system: SR
[36] = system: SK-OV-3
[37] = system: COLO 205
[38] = system: HOP-92
[39] = system: Malme-3M
[40] = system: OVCAR-4
[41] = system: HCT-15
[42] = system: HCC 2998
[43] = system: CCRF-CEM
[44] = system: MCF7
[45] = system: SNB-75
[46] = system: UACC-62
[47] = system: TK-10
[48] = system: HCT-116
[49] = system: IGROV-1
[50] = system: SK-MEL-28
[51] = system: NCI-H226
[52] = system: U-251
[53] = system: HOP-62
[54] = system: KM12
[55] = system: M14
[56] = system: DU-145
[57] = system: OVCAR-5
[58] = system: MOLT-4
[59] = system: HT-29
[60] = system: DMS-273
[61] = system: SNB-78
[62] = system: M19-MEL
[63] = system: KM-20L2

SMILES: CCOC(=O)/C=C(/C(=O)OCC)n1cc(C)c(=O)n(Cc2cn(COCCOC(C)=O)nn2)c1=O
- GI50 [1]: 45.8 µM (inactive)
- GI50 [2]: 20 µM (inactive)
- GI50 [3]: 18.3 µM (inactive)
- GI50 [4]: 26.3 µM (inactive)
- GI50 [5]: > 100 µM (inactive)
- GI50 [6]: 25.8 µM (inactive)
- GI50 [7]: > 40.6 µM (inactive)
- GI50 [8]: 50.5 µM (inactive)
- GI50 [9]: 1.07 µM (active)
- GI50 [10]: 21 µM (inactive)
- GI50 [11]: 6.18 µM (inactive)
- GI50 [12]: 20.7 µM (inactive)
- GI50 [13]: > 100 µM (inactive)
- GI50 [14]: 15.9 µM (inactive)
- GI50 [15]: 17.9 µM (inactive)
- GI50 [16]: 37.3 µM (inactive)
- GI50 [17]: 24.9 µM (inactive)
- GI50 [18]: 16.7 µM (inactive)
- GI50 [19]: 7.18 µM (inactive)
- GI50 [20]: 16.2 µM (inactive)
- GI50 [21]: 19.9 µM (inactive)
- GI50 [22]: 25.8 µM (inactive)
- GI50 [23]: 19.5 µM (inactive)
- GI50 [24]: 8.57 µM (inactive)
- GI50 [25]: 22.2 µM (inactive)
- GI50 [26]: 9.59 µM (inactive)
- GI50 [27]: 23.7 µM (inactive)
- GI50 [28]: 24.7 µM (inactive)
- GI50 [29]: > 52.6 µM (inactive)
- GI50 [30]: 28.4 µM (inactive)
- GI50 [31]: 7.06 µM (inactive)
- GI50 [32]: 2.49 µM (inactive)
- GI50 [33]: 38.3 µM (inactive)
- GI50 [34]: 6.84 µM (inactive)
- GI50 [35]: 20.9 µM (inactive)
- GI50 [36]: > 100 µM (inactive)
- GI50 [37]: 7.82 µM (inactive)
- GI50 [38]: 13.2 µM (inactive)
- GI50 [39]: 11 µM (inactive)
- GI50 [40]: 20 µM (inactive)
- GI50 [41]: 20.7 µM
- GI50 [42]: 17.3 µM (inactive)
- GI50 [43]: 0.984 µM (active)
- GI50 [44]: 16.5 µM (inactive)
- GI50 [45]: 33.2 µM (inactive)
- GI50 [46]: 17.1 µM (inactive)
- GI50 [47]: 14.2 µM (inactive)
- GI50 [48]: 20.7 µM (inactive)
- GI50 [49]: 17.2 µM (inactive)
- GI50 [50]: 19.8 µM (inactive)
- GI50 [51]: 21.1 µM (inactive)
- GI50 [52]: 26.3 µM (inactive)
- GI50 [53]: > 100 µM (inactive)
- GI50 [54]: 23.1 µM (inactive)
- GI50 [55]: 46 µM (inactive)
- GI50 [56]: 36.3 µM (inactive)
- GI50 [57]: 27.8 µM (inactive)
- GI50 [58]: 15 µM (inactive)
- GI50 [59]: 16.1 µM (inactive)

SMILES: COC(=O)c1s/c(=N\C(=S)N(C)C)n(-c2ccc(Cl)cc2)c1C(=O)OC
- GI50 [1]: > 100 µM (inactive)
- GI50 [2]: > 100 µM (inactive)
- GI50 [5]: > 100 µM (inactive)
- GI50 [7]: 71.8 µM (inactive)
- GI50 [8]: > 100 µM (inactive)
- GI50 [9]: > 100 µM (inactive)
- GI50 [11]: > 100 µM (inactive)
- GI50 [12]: > 100 µM (inactive)
- GI50 [13]: > 100 µM (inactive)
- GI50 [60]: > 100 µM (inactive)
- GI50 [14]: 95.5 µM (inactive)
- GI50 [15]: > 100 µM (inactive)
- GI50 [17]: > 10 µM (inactive)
- GI50 [18]: > 100 µM (inactive)
- GI50 [19]: > 100 µM (inactive)
- GI50 [20]: > 100 µM (inactive)
- GI50 [22]: > 100 µM (inactive)
- GI50 [23]: > 100 µM (inactive)
- GI50 [24]: > 100 µM (inactive)
- GI50 [25]: > 100 µM (inactive)
- GI50 [26]: 59.2 µM (inactive)
- GI50 [27]: 78.9 µM (inactive)
- GI50 [61]: > 100 µM (inactive)
- GI50 [28]: > 100 µM (inactive)
- GI50 [29]: > 100 µM (inactive)
- GI50 [31]: > 100 µM (inactive)
- GI50 [32]: 49 µM (inactive)
- GI50 [34]: > 100 µM (inactive)
- GI50 [35]: > 100 µM (inactive)
- GI50 [36]: > 10 µM (inactive)
- GI50 [37]: > 100 µM (inactive)
- GI50 [39]: > 100 µM (inactive)
- GI50 [40]: 56.4 µM (inactive)
- GI50 [41]: > 100 µM
- GI50 [42]: > 100 µM (inactive)
- GI50 [43]: > 100 µM (inactive)
- GI50 [62]: > 100 µM (inactive)
- GI50 [45]: > 10 µM (inactive)
- GI50 [46]: > 10 µM (inactive)
- GI50 [47]: > 100 µM (inactive)
- GI50 [48]: > 100 µM (inactive)
- GI50 [49]: > 10 µM (inactive)
- GI50 [50]: > 100 µM (inactive)
- GI50 [51]: > 100 µM (inactive)
- GI50 [52]: > 100 µM (inactive)
- GI50 [53]: 70.3 µM (inactive)
- GI50 [54]: > 100 µM (inactive)
- GI50 [55]: > 100 µM (inactive)
- GI50 [63]: > 100 µM (inactive)
- GI50 [57]: > 100 µM (inactive)
- GI50 [58]: > 100 µM (inactive)
- GI50 [59]: > 100 µM (inactive)
